The source of these data is patent publication US20250098726A1, “AEROSOLISABLE MATERIAL” (Nicoventures Trading Limited, priority 2022, published 2025).

This data set can be described thus: solubility trial of sensates in propylene glycol/glycerol mixture. Type of data set: physicochemical. Particulars: PG:VG 70:30, sensate w/w % subtracted from PG (Symheat PV 1, WS-3 0.8, Ginger Extract 0.1 w/w %); one hour following addition of VG. The text has this:
Formulations were produced containing propylene glycol (PG) and glycerol (VG) at a 70:30 ratio with the w/w % sensate addition subtracted from the w/w % of propylene glycol as is typical in the art.

`CCNC(=O)[C@@H]1C[C@H](C)CC[C@H]1C(C)C` (stereo in doubt) [WS-3, N-ethyl-5-methyl-2-propan-2-ylcyclohexane-1-carboxamide]: the Soluble result is recorded as “✓”.
